Results published in PubChem BioAssay (NCI).
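GI50 = concentration required for 50% inhibition of growth. At the TGI there is no net growth.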

Legend:
Test in all cases: NCI tumour cell line growth inhibition, 384-well format
[1] = test system: 786-0 renal
[2] = test system: COLO 205 colon
[3] = test system: HL-60(TB) leukemia
[4] = test system: NCI-H23 lung
[5] = test system: OVCAR-3 ovarian
[6] = test system: CCRF-CEM leukemia
[7] = test system: EKVX NSCLC
[8] = test system: SN12C renal
[9] = test system: CAKI-1 renal
[10] = test system: HOP-92 NSCLC
[11] = test system: MDA-MB-468 breast
[12] = test system: OVCAR-5 ovarian
[13] = test system: SW-620 colon
[14] = test system: UACC-62 melanoma
[15] = test system: NCI-H460 NSCLC
[16] = test system: UO-31 renal
[17] = test system: OVCAR-4 ovarian
[18] = test system: HCT-116 colon
[19] = test system: OVCAR-8 ovarian
[20] = test system: DU-145 prostate
[21] = test system: MCF7 breast
[22] = test system: UACC-257 melanoma
[23] = test system: ACHN renal
[24] = test system: MDA-MB-435 melanoma
[25] = test system: PC-3 prostate
[26] = test system: SK-MEL-28 melanoma
[27] = test system: MALME-3M melanoma
[28] = test system: NCI-H226 lung
[29] = test system: M14 melanoma

CC(=O)N1CCN(CCOc2ccc(C3CCN(C4=Nn5c(nnc5C(F)(F)F)CC4)CC3)cc2)CC1
GI50 [1]: 8.6 µM
TGI [1]: 69.3 µM
GI50 [2]: 15.2 µM
TGI [2]: > 100 µM
GI50 [3]: 3.79 µM
TGI [3]: 14.7 µM
GI50 [4]: 8.08 µM
TGI [4]: > 100 µM
GI50 [5]: 7.08 µM
TGI [5]: 35.3 µM
GI50 [6]: 4.06 µM
TGI [6]: 19.3 µM
GI50 [7]: 16.8 µM
TGI [7]: > 100 µM
GI50 [8]: 22.5 µM
TGI [8]: > 100 µM
GI50 [9]: 3.53 µM
TGI [9]: > 100 µM
GI50 [10]: 14.5 µM
TGI [10]: > 100 µM
GI50 [11]: 1.72 µM
TGI [11]: 10 µM
GI50 [12]: 15.1 µM
TGI [12]: > 100 µM
GI50 [13]: > 100 µM
TGI [13]: > 100 µM
GI50 [14]: 4.27 µM
TGI [14]: 88.8 µM
GI50 [15]: 13.3 µM
TGI [15]: 36.6 µM
GI50 [16]: 22.9 µM
TGI [16]: > 100 µM
GI50 [17]: 11.8 µM
TGI [17]: 71.7 µM
GI50 [18]: 13.4 µM
TGI [18]: > 100 µM
GI50 [19]: 12.3 µM
TGI [19]: 60 µM
GI50 [20]: 32 µM
TGI [20]: > 100 µM
GI50 [21]: 3.42 µM
TGI [21]: 83.1 µM
GI50 [22]: 4.87 µM
TGI [22]: 26.2 µM
GI50 [23]: 15.3 µM
TGI [23]: 62.8 µM
GI50 [24]: 32.8 µM
TGI [24]: > 100 µM
GI50 [25]: 9.08 µM
TGI [25]: > 100 µM
GI50 [26]: 24.2 µM
TGI [26]: > 100 µM
GI50 [27]: 11.6 µM
TGI [27]: 75.2 µM
GI50 [28]: 15 µM
TGI [28]: > 100 µM
GI50 [29]: 10.9 µM
TGI [29]: > 100 µM
